# Laboratory results published in US20170065593A1, “Combination” (Novartis AG, priority 2009, published 2017).
# System: A549 lung cancer cell line
# Test: Assay 2: cell growth (CellTiterGlo, 72 hours), Ymin
# Format: cell-based
# Details: percent of T=0 (T=0 = 100%)
# Experimental: FIG. 5 depicts the effect of MEK inhibitor, mTOR inhibitor and their combination on A549 lung cancer cell line growth. […] Cells were treated with MEK inhibitor (two fold dilutions ranging from 7.3 uM-0.014 nM) or with mTOR inhibitor (two fold dilutions ranging from 14.6 uM-0.112 nM) or in combination with both compounds and incubated for 72 hours. Cell growth was measured using the CellTiterGlo (CTG) reagent (Promega) according to the manufacturer's protocol. Data were analyzed using the XLfit (IDBS Ltd.) curve-fitting tool for Microsoft Excel. Growth IC50 (gIC50) and Ymin values were generated using a four-parameter curve fit algorithm (XLFit algorithm #205). Results were expressed as a percent of the t=0 and plotted against the compound concentration. […] Formula below was used to calculate mutually exclusive combination index (CI). Data were reported as log CI, where the logarithm value of CI was calculated. […] Similar analysis was performed for all cell lines and Ymin results are depicted in FIG. 6.
substance,measurement,value
"N-{3-[3-cyclopropyl-5-(2-fluoro-4-iodo-phenylamino)6,8-dimethyl;-2,4,7-trioxo-3,4,6,7-tetrahydro-2H-pyrido[4,3-d]pyrimidin-1-yl]phenyl}acetamide [Compound A]",Ymin (lower Y value at any compound concentration),257%
